“Also recorded” adds a separate entry of the source.
How the values were obtained:
OM10.1 cells = assay: Cell-associated HIV Gag mRNA expression / HIV transcription in latently infected OM10.1 cells; format: cell-based; settings: 96-day period with ARVs, n=1
Method: (§1) Next, the activity of these leads against HIV infection was evaluated using the reporter cell line HeLa-CD4-LTR-LacZ, which stably expresses the β-galactosidase (β-Gal) gene under the control of the HIV 5′ LTR. The HIV NL4.3 strain was used for these studies and β-Gal activity was measured 72 hrs post infection (FIG. 3A). Cytotoxicity assays using Cell-Titer-Glo were performed in parallel to assess cell viability (FIG. 3A). […] Their anti-HIV activity was further assessed in acute replication of Jurkat T cells with the NL4.3 strain (FIG. 3A). […] These OM10.1 cells contain a single integrated wild-type provirus, while ACH-2 cells contain a single integrated provirus with a TAR mutation C37T, defective Tat-TAR feedback loop (FIG. 3B).

OM10.1 and ACH-2 cells = assay: Toxicity / cell viability in latent cell models; settings: OM10.1 and ACH2; 96-day period with ARVs
Method: as §1

[1] = tested on: TAR-SIIB promoter (Flag-Tat-Rev fusion protein); assay: Flag-Tat-Rev fusion protein transactivation of TAR-SIIB promoter; format: cell-based, HIV-1; settings: SIIB reporter HEK293T
Method: FIG. 4. […] Shown is n=1. […] Shown is n=1. ARVs: antiretrovirals: 100 nM Efavirenz, 200 nM Lamivudine and 200 nM Raltegravir. C. […] SIIB: a reporter HEK293T stable cell line where the essential apical region of TAR was replaced by the 29-nucleotide stem-loop IIB (SIIB) subdomain of the HIV-1 RRE. A Tat-Rev fusion protein activates transcription of luciferase when Rev binds SIIB, bringing Tat and P-TEFb to RNAPII at the HIV promoter. Shown is mean±SEM of n=4.

[2] = molecular target: Tat protein (ubiquitin chains) (Human immunodeficiency virus type 1 (HXB3 ISOLATE), UniProt P69698); assay: Ubiquitin linkage assay: HA-Ubiquitin lysine mutants and Flag-Tat in HEK293T, western blot; format: cell-based, HIV; settings: HA-Ubiquitin mutants, TT-44881 60 μM, 24 hours
Source text: FIG. 10. TT-44881's anti-HIV activity engages heterogenous lysine linked Ubiquitin chains (K48 and K33 chains). A. Example of covalent binding of the Ubiquitin chains to the lysine residues of the Tat protein. B. Schematic of the different Ubiquitin chains that can be linked to the Tat protein to induce its degradation or stabilization. C. […] HEK293T cells overexpressing HA-Ubiquitin proteins (which have each lysine singly mutated to arginine or only one lysine present) and Flag-Tat protein were treated with TT-44881. Western blot assays were performed 24 hours later. TT-44881: 60 μM. Shown is representative of n=3.
Which Ubiquitin linkage engaged in the TT-44881 degradation activity was also investigated. HEK293T cells were transfected with Tat protein and HA-Ubiquitin which has each lysine singly mutated to arginine or only one lysine present.

Chain of Tat protein (ubiquitin chains) (P69698 whole entry): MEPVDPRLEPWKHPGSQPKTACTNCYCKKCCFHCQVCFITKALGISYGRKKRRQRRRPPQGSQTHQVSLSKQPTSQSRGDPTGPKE

Structure (SMILES) | HIV transcription (in words) (OM10.1 cells) | cell viability (OM10.1 and ACH-2 cells) | Flag-Tat-Rev transactivation of TAR-SIIB [1] | ubiquitin chain linkages engaged in Tat degradation [2]
COCCOc1ccc(C(F)(F)F)cc1NC(=O)Cn1cc(C(F)(F)F)cc(Cl)c1=O [TT-44863] | inhibit HIV transcription | without affecting cell viability | inhibit Tat-Rev fusion protein transactivation | 
O=C(CCCCN1CCCC1=O)c1nn(-c2ccccc2)c2c1CCC2 [TT-44881] | inhibit HIV transcription | without affecting cell viability | inhibit Tat-Rev fusion protein transactivation | K48-linked ubiquitin chains are involved in TT-44881 activity, K33 linked ubiquitin chains also seemed to be engaged; also recorded: blocks TT-44881 induced Tat degradation
